# Reference: patent publication US20100329996A1, “Novel Combination of Therapeutic Agents” (Glaxo Group Limited, priority 2007, published 2010)
# Assays:
# [1] = stability of formulation with magnesium stearate; assay type: physicochemical; settings: addition of magnesium stearate in the formulation, under conditions tested
# [2] = system: M1 and M3 receptors over the M2 receptors; experiment: muscarinic receptor subtype selectivity and antagonist character; assay type: binding
# [3] = system: isolated human bronchial strips; experiment: inhibition of carbachol-induced contraction of isolated human bronchial strips; assay type: cell-based; settings: for offset half time: 10 nM; for onset half time to 50% inhibition of carbachol-induced contraction: single concentration of 10 nM
# [4] = system: muscarinic acetylcholine (Ach) receptor; experiment: off-rate at the muscarinic acetylcholine receptor; assay type: binding
# Description: This is known to be predictive of a long duration of action. Therefore, while a twice daily dosing at 10-100 mcg/dose may be used, if the dose is increased, such as to 100-200 mcg/dose, once daily dosing may be a suitable alternative.
# [5] = system: healthy male ipratropium-responsive subjects; experiment: clinical trial, single escalating inhaled doses, airway conductance (sGaw); assay type: in vivo, human; settings: for increase in airway conductance (sGaw) versus placebo, significance: all doses (bromide compound 20-350 mcg via Diskus; tiotropium 18 mcg), healthy subjects
# Description: In another clinical trial using a binary mixture of the bromide compound and lactose monohydrate, the safety, tolerability, pharmacodynamics and pharmacokinetics of single escalating doses of the bromide compound (20, 60, 100, 250 and 350 mcg via the Diskus), and tiotropium (18 mcg) in 20 healthy male ipratropium-responsive subjects were compared.
# [6] = human clinical trial, bronchodilation and onset of action; assay type: in vivo
# [7] = system: male and female ipratropium-responsive COPD subjects; experiment: clinical study, single inhaled doses, FEV1; assay type: in vivo, human
# Protocol: A third clinical study assessed the safety, tolerability, pharmacodynamics and pharmacokinetics of single inhaled doses of the bromide compound (20, 50 and 100 mcg via Diskus), and tiotropium (18 mcg) in 31 male and female ipratropium-responsive COPD subjects.
# Mean FEV1 values peaked at 2 hours and decreased consistently to 24 hours for each dose.
Structure (SMILES),stabilization of the product on stability [1],muscarinic receptor antagonist character [2],reversibility of antagonism [2],selectivity for the M1 and M3 receptors over the M2 receptors [2],offset half time [3],onset half time to 50% inhibition of carbachol-induced contraction [3],off-rate at the muscarinic acetylcholine (Ach) receptor [4],"increase in sGaw compared with placebo ([5]; 20 mcg dose, after 24 hours)","increase in airway conductance (sGaw) versus placebo, significance [5]",onset of action in human clinical trial ([6]; compared with tiotropium),"bronchodilator efficacy in human clinical trial ([6]; human, in vivo)","FEV1 adjusted mean difference versus placebo ([7]; 20 mcg, 12 hours)","FEV1 adjusted mean difference versus placebo ([7]; 20 mcg, 24 hours)","FEV1 adjusted mean difference versus placebo ([7]; 50 mcg, 12 hours)","FEV1 adjusted mean difference versus placebo ([7]; 50 mcg, 24 hours)","FEV1 adjusted mean difference versus placebo ([7]; 100 mcg, 12 hours)","FEV1 adjusted mean difference versus placebo ([7]; 100 mcg, 24 hours)","Mean FEV1 versus placebo, significance ([7]; all doses (20, 50, 100 mcg), each time point over 24 hours, COPD subjects)","time of peak mean FEV1 ([7]; each dose (20, 50, 100 mcg))"
"C[N+]1(C)C2CCC1CC(CC(C#N)(c1ccccc1)c1ccccc1)C2 (stereo not drawn) [Compound (I), (Endo)-3-(2-cyano-2,2-diphenyl-ethyl)-8,8-dimethyl-8-azonia-bicyclo[3.2.1]octane]",some improvement in stabilization,–,–,–,–,–,–,–,–,–,–,–,–,–,–,–,–,–,–
"C[N+]1(C)[C@@H]2CC[C@H]1C[C@@H](CC(C#N)(c1ccccc1)c1ccccc1)C2.[Br-] [bromide compound, (Endo)-3-(2-cyano-2,2-diphenyl-ethyl)-8,8-dimethyl-8-azonia-bicyclo[3.2.1]octane bromide]",–,"high-affinity, pan-active, competitive and reversible",partially reversible antagonist,10 fold,195 min,25 min,slow,16%,statistically significantly greater increases,faster onset of action than tiotropium,effective long-acting anti-muscarinic bronchodilator,241 mL,135 mL,288 mL,136 mL,305 mL,above 200 mL,statistically significantly higher than placebo,2 h
"C[N+]1(C)[C@@H]2C[C@@H](OC(=O)C(O)(c3cccs3)c3cccs3)C[C@H]1[C@@H]1O[C@@H]12 [tiotropium, tiotropium bromide, reference compound]",–,–,–,–,314 min,10 min,–,–,statistically significantly greater increases,–,–,–,–,–,–,–,–,–,–
